Results as given in patent publication US20250289789A1, “REVERSIBLE LYSINE COVALENT MODIFIERS OF CDK2 AND USES THEREOF” (Terremoto Biosciences, Inc., priority 2023, published 2025).
Where two headings read alike, the source gives them in different places.

Legend:
Type in all cases: cell-based
[1] = target: T1, CDK2-NanoLuc fusion with CCNE1 in 293T or 293 cells (Homo sapiens, UniProt P24941); assay: NanoBRET Target Engagement (TE) Intracellular Kinase Assay, CDK2/CCNE1; conditions: NanoBRET TE intracellular kinase assay, 2-hour incubation, read-out: NanoBRET-CDK2/E1 IC50
T1 construct: host or cells: 293T (ATCC CRL-3216) or 293 (ATCC CRL-1573)
Method: (§1) Inhibitory effects of compounds were measured in NanoBRET TE Intracellular Kinase Assay. […] Cells were co-transfected with 1 μg/mL of CDK-NanoLuc Fusion Vector (Promega; NV2701 for CDK1, NV2781 for CDK2, NV2811 for CDK4, NV2841 for CDK6) and 1 μg/mL of the corresponding Cyclin Expression Vector (Promega; NV2601 for CCNB1, NV2641 for CCNE1, NV2621 for CCND1, NV2631 for CCND3) using FuGENE HD Transfection Reagent (Promega; E2311). […] 20 uL/well of 3× Intracellular TE Nano-Glo Substrate/Inhibitor (Promega; N2162) were added to 384-well plates and incubated for 3 minutes at room temperature. NanoBRET signals (donor emission wavelength at 450 nm, acceptor emission wavelength at 610 nm) were measured using Envision plate reader (PerkinElmer). NanoBRET ratio was calculated by: BRET Ratio=raw signal for acceptor/raw signal for donor. Dose response curve normalized to DMSO control was plotted using four-parameter logistic model for IC50 calculation.

[2] = target: T2, CDK4-NanoLuc fusion with CCND1 in 293T or 293 cells (Homo sapiens, UniProt P11802); assay: NanoBRET Target Engagement (TE) Intracellular Kinase Assay, CDK4/CCND1; conditions: NanoBRET TE intracellular kinase assay, 2-hour incubation, read-out: NanoBRET-CDK4/D1 IC50
T2 construct: host or cells: 293T (ATCC CRL-3216) or 293 (ATCC CRL-1573)
T2 sequence (P11802 whole entry, the tested form may be a part): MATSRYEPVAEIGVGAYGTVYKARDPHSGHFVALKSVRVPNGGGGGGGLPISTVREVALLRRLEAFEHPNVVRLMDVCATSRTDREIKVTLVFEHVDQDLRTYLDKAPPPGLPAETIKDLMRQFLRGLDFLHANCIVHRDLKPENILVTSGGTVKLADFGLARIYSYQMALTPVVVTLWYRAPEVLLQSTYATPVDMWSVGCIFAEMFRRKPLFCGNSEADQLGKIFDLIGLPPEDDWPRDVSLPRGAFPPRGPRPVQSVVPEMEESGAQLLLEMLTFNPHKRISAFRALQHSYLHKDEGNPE
T2 sequence (P24385 whole entry partner, the tested form may be a part): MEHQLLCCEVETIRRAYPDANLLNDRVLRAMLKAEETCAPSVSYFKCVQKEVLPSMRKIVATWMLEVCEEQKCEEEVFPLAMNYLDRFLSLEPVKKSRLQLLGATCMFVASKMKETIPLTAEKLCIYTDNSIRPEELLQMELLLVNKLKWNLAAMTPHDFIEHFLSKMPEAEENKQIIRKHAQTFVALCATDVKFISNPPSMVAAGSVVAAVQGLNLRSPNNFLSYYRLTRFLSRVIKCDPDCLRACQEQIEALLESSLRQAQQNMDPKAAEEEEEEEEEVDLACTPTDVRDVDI
Method: as §1

[3] = tested on: Phospho-Rb Ser807/811 in OVCAR3 cells; assay: OVCAR3 Phospho-Rb Ser807/811 HTRF assay; conditions: OVCAR3 cells, Phospho-Rb Ser807/811 HTRF, 1 hour incubation, read-out: pRb-OVCAR3 IC50
Method: Cells were trypsinized and resuspended in 1 mM hydroxyurea (Sigma; H8627), 90% RPMI and 10% fetal bovine serum. […] Dose response curve normalized to DMSO control was plotted using four-parameter logistic model for IC50 calculation.

Row | SMILES | IC50 [1] | IC50 [2] | IC50 ([3]; Homo sapiens, OVCAR-3, 1 h) | IC50 [3]
1 | COc1cc(O)c(C=O)c(OCC(=O)Nc2cc([C@H]3CC[C@@H](OC(=O)N4CC5CC(C4)N5C)C3)[nH]n2)c1 [Compound 189] | 159 nM | > 10000 nM | 198 nM | –
2 | CCN(CC#N)C(=O)O[C@@H]1CC[C@H](c2cc(NC(=O)COc3cc(OC)cc(O)c3C=O)n[nH]2)C1 [Compound 147] | 2.85 nM | 2260 nM | 13.8 nM | –
3 | COc1cc(O)c(C=O)c(OCC(=O)Nc2cc([C@H]3CC[C@@H](OC(=O)NCCN(C)C)C3)[nH]n2)c1 [Compound 188] | 337 nM | > 10000 nM | 368 nM | –
4 | COc1cc(O)c(C=O)c(OCC(=O)Nc2cc([C@H]3CC[C@@H](OC(=O)NC4(C)CC4(F)F)C3)[nH]n2)c1 (single isomer, unassigned) [Compound 281, (1R,3S)-3-(3-(2-(2-formyl-3-hydroxy-5-methoxyphenoxy)acetamido)-1H-pyrazol-5-yl)cyclopentyl ((*)-2,2-difluoro-1-methylcyclopropyl)carbamate] | 4.85 nM | 1200 nM | – | 27.3 nM
5 | COc1cc(O)c(C=O)c(OCC(=O)Nc2cc([C@H]3CC[C@@H](OC(=O)NC4COC4)C3)[nH]n2)c1 [Compound 149] | 20.2 nM | > 10000 nM | 385 nM | –
6 | CCCCNC(=O)O[C@@H]1CC[C@H](c2cc(NC(=O)COc3cc(OC)cc(O)c3C=O)n[nH]2)C1 [Compound 181] | 1.18 nM | 5000 nM | 27.9 nM | –
7 | COc1cc(O)c(C=O)c(OCC(=O)Nc2cc([C@H]3CC[C@@H](OC(=O)N4CC[C@H](C#N)C4)C3)[nH]n2)c1 [Compound 152] | 7.62 nM | 6990 nM | 30 nM | –
8 | COc1cc(O)c(C=O)c(OCC(=O)Nc2cc([C@H]3CC[C@@H](OC(=O)N4C[C@@H]5CC[C@H]4CO5)C3)[nH]n2)c1 [Compound 157] | 6.79 nM | 7000 nM | 70 nM | –
9 | COc1cc(O)c(C=O)c2c1CC(C(=O)Nc1cc([C@H]3CC[C@@H](OC(=O)N(C)N(C)C)C3)n[nH]1)C2 (single isomer, unassigned) [Compound 284, (1R,3S)-3-(3-((*)-4-formyl-5-hydroxy-7-methoxy-2,3-dihydro-1H-indene-2-carboxamido)-1H-pyrazol-5-yl)cyclopentyl 1,2,2-trimethylhydrazine-1-carboxylate] | 1.85 nM | 2850 nM | 29.2 nM | –
10 | COc1cc(O)c(C=O)c(OCC(=O)Nc2cc([C@H]3CC[C@@H](OC(=O)N4C[C@H](F)[C@@H]4C)C3)[nH]n2)c1 [Compound 122] | 1.99 nM | 1310 nM | 20.9 nM | –
11 | Cc1cc(O)c(C=O)c(OCC(=O)Nc2cc([C@H]3CC[C@@H](OC(=O)N4C5CCC4CC5)C3)[nH]n2)c1 [Compound 161] | 2.79 nM | 7360 nM | 68.6 nM | –
12 | COc1cc(O)c(C=O)c(OCC(=O)Nc2cc([C@H]3CC[C@@H](OC(=O)NN(C)C)C3)[nH]n2)c1 [Compound 160] | 7.35 nM | > 10000 nM | 80.3 nM | –
13 | CC[C@H](C)NC(=O)O[C@@H]1CC[C@H](c2cc(NC(=O)COc3cc(OC)cc(O)c3C=O)n[nH]2)C1 [Compound 184] | 1.5 nM | 1450 nM | 20.6 nM | –
14 | CNN(C)C(=O)O[C@@H]1CC[C@H](c2cc(NC(=O)COc3cc(OC)cc(O)c3C=O)n[nH]2)C1 [Compound 279, (1R,3S)-3-(3-(2-(2-formyl-3-hydroxy-5-methoxyphenoxy)acetamido)-1H-pyrazol-5-yl)cyclopentyl 1,2-dimethylhydrazine-1-carboxylate] | 4.32 nM | > 10000 nM | 63.9 nM | –
15 | COc1cc(O)c(C=O)c(OCC(=O)Nc2cc([C@H]3CC[C@@H](OC(=O)NCCCC#N)C3)[nH]n2)c1 [Compound 156] | 10.1 nM | > 10000 nM | 33.8 nM | –
16 | COc1cc(O)c(C=O)c2c1CC(C(=O)Nc1cc([C@H]3CC[C@@H](OC(=O)NN(C)CC(F)(F)F)C3)[nH]n1)C2 (single isomer, unassigned) [Compound 264, (1R,3S)-3-(3-((*)-4-formyl-5-hydroxy-7-methoxy-2,3-dihydro-1H-indene-2-carboxamido)-1H-pyrazol-5-yl)cyclopentyl 2-methyl-2-(2,2,2-trifluoroethyl)hydrazine-1-carboxylate] | 5.95 nM | 512 nM | – | 13.6 nM
17 | CCCONC(=O)O[C@@H]1CC[C@H](c2cc(NC(=O)COc3cc(OC)cc(O)c3C=O)n[nH]2)C1 [Compound 135] | 3.41 nM | > 10000 nM | 92.7 nM | –
18 | COc1cc(O)c(C=O)c(OCC(=O)Nc2cc([C@H]3CC[C@@H](OC(=O)N4CC(F)(F)C4)C3)[nH]n2)c1 [Compound 129] | 1.96 nM | 7620 nM | 44.5 nM | –
19 | COc1cc(O)c(C=O)c(OCC(=O)Nc2cc([C@H]3CC[C@@H](OC(=O)N4CCC[C@H](C#N)C4)C3)[nH]n2)c1 [Compound 131, (1R,3S)-3-{5-[2-(2-formyl-3-hydroxy-5-methoxyphenoxy)acetamido]-2H-pyrazol-3-yl}cyclopentyl (3S)-3-cyanopiperidine-1-carboxylate] | 3.25 nM | 697 nM | 12.5 nM | –
20 | COc1cc(O)c(C=O)c(OCC(=O)Nc2cc([C@H]3CC[C@@H](OC(=O)NC(C)(C)C#N)C3)[nH]n2)c1 [Compound 159] | 10.6 nM | 4840 nM | 43.1 nM | –
21 | COc1cc(O)c(C=O)c(OCC(=O)Nc2cc([C@H]3CC[C@@H](OC(=O)N4CC(N(C)C)C4)C3)[nH]n2)c1 [Compound 187] | 18.4 nM | > 10000 nM | 65.3 nM | –
22 | COc1cc(O)c(C=O)c2c1CC(C(=O)Nc1cc([C@H]3C[C@@H](OC(=O)N(C)N(C)C)C3)n[nH]1)C2 (single isomer, unassigned) [Compound 270] | 6.25 nM | > 10000 nM | – | 48.6 nM
23 | O=Cc1c(O)cccc1OCC(=O)Nc1cc([C@H]2CC[C@@H](OC(=O)N3C4COCC3C4)C2)[nH]n1 [Compound 196] | 6.2 nM | 7360 nM | 102 nM | –
24 | COc1cc(O)c(C=O)c(OCC(=O)Nc2cc([C@H]3CC[C@@H](OC(=O)NCC4COC4)C3)[nH]n2)c1 [Compound 179] | 14.1 nM | > 10000 nM | 115 nM | –
25 | COc1cc(O)c(C=O)c(OCC(=O)Nc2cc([C@H]3CC[C@@H](OC(=O)N[C@H]4C[C@@H](C)C4)C3)[nH]n2)c1 [Compound 150] | 2.27 nM | 3890 nM | 148 nM | –
26 | Cc1cc(O)c(C=O)c(OCC(=O)Nc2cc([C@H]3CC[C@@H](OC(=O)N4CCC4(C)C)C3)[nH]n2)c1 [Compound 162] | 3.09 nM | 3470 nM | 37.4 nM | –
27 | COc1cc(O)c(C=O)c2c1CC(C(=O)Nc1cc([C@H]3CC[C@@H](OC(=O)NN(C)CC(F)(F)F)C3)[nH]n1)C2 (single isomer, unassigned) [Compound 265, (1R,3S)-3-(3-((*)-4-formyl-5-hydroxy-7-methoxy-2,3-dihydro-1H-indene-2-carboxamido)-1H-pyrazol-5-yl)cyclopentyl 2-methyl-2-(2,2,2-trifluoroethyl)hydrazine-1-carboxylate] | 15.5 nM | 132 nM | – | 567 nM
